Measurements: ChEMBL document CHEMBL4342421, “Current scenario of tetrazole hybrids for antibacterial activity” (Eur J Med Chem, 2019)
Converted amounts (≈) assume the structure as drawn. Blank lines part the entries; values can stand above or below the compound they belong to.

Assays:
Bacillus subtilis [1] = experiment: Antimicrobial activity against Bacillus subtilis assessed as zone of inhibition at 5 mg/ml after 24 to 48 hrs by well diffusion method; assay type: functional; settings: read-out: IZ
Escherichia coli [2] = experiment: Antimicrobial activity against Escherichia coli assessed as zone of inhibition at 5 mg/ml after 24 to 48 hrs by well diffusion method; assay type: functional; settings: read-out: IZ
Staphylococcus aureus [3] = experiment: Antimicrobial activity against Staphylococcus aureus assessed as zone of inhibition at 5 mg/ml after 24 to 48 hrs by well diffusion method; assay type: functional; settings: read-out: IZ
Pseudomonas aeruginosa [4] = experiment: Antimicrobial activity against Pseudomonas aeruginosa assessed as zone of inhibition at 5 mg/ml after 24 to 48 hrs by well diffusion method; assay type: functional; settings: read-out: IZ
Proteus mirabilis = experiment: Antimicrobial activity against Proteus mirabilis; assay type: functional
Staphylococcus aureus [5] = experiment: Antimicrobial activity against Staphylococcus aureus; assay type: functional
Candida albicans = experiment: Antifungal activity against Candida albicans; assay type: functional
Escherichia coli [6] = experiment: Antimicrobial activity against Escherichia coli; assay type: functional
[7] = system: Staphylococcus epidermidis; experiment: Antimicrobial activity against Staphylococcus epidermidis; assay type: functional
Pseudomonas aeruginosa [8] = experiment: Antimicrobial activity against Pseudomonas aeruginosa; assay type: functional
Aspergillus niger = experiment: Antifungal activity against Aspergillus niger; assay type: functional
Bacillus cereus [9] = experiment: Antimicrobial activity against Bacillus cereus; assay type: functional
Aspergillus flavus = experiment: Antifungal activity against Aspergillus flavus; assay type: functional
[10] = system: Talaromyces purpureogenus; experiment: Antifungal activity against Penicillium purpurogenum; assay type: functional
Trichothecium roseum = experiment: Antifungal activity against Trichothecium roseum; assay type: functional
Bacillus subtilis [11] = experiment: Antimicrobial activity against Bacillus subtilis; assay type: functional
NIH3T3 = experiment: Cytotoxicity against mouse NIH/3T3 cells assessed as reduction in cell viability; assay type: cell-based
C6 = experiment: Anticancer activity against rat C6 cells; assay type: functional, cell-based
Bacillus subtilis [12] = experiment: Potency index, ratio of streptomycin MIC to test compound MIC for antimicrobial activity against Bacillus subtilis; assay type: functional
Escherichia coli [13] = experiment: Potency index, ratio of streptomycin MIC to test compound MIC for antimicrobial activity against Escherichia coli; assay type: functional
Pseudomonas aeruginosa [14] = experiment: Potency index, ratio of streptomycin MIC to test compound MIC for antimicrobial activity against Pseudomonas aeruginosa; assay type: functional
[15] = Half life in rat; assay type: ADME; settings: in vivo
[16] = AUC in rat; assay type: ADME; settings: in vivo
Escherichia coli [17] = experiment: Antimicrobial activity against Escherichia coli assessed as zone of inhibition at 600 ug/ml after 24 hrs by disk diffusion method; assay type: functional; settings: read-out: IZ
Escherichia coli [18] = experiment: Potency index, ratio of ciprofloxacin MIC to test compound MIC for antimicrobial activity against Escherichia coli; assay type: functional
Bacillus subtilis [19] = experiment: Potency index, ratio of ciprofloxacin MIC to test compound MIC for antimicrobial activity against Bacillus subtilis; assay type: functional
Bacillus cereus [20] = experiment: Antimicrobial activity against Bacillus cereus assessed as zone of inhibition at 0.001 mol/cm3; assay type: functional
Escherichia coli [21] = experiment: Antimicrobial activity against Escherichia coli assessed as zone of inhibition at 0.001 mol/cm3; assay type: functional
Staphylococcus aureus [22] = experiment: Antimicrobial activity against Staphylococcus aureus assessed as zone of inhibition at 0.001 mol/cm3; assay type: functional
[23] = Clearance in rat; assay type: ADME; settings: in vivo
Pichia kudriavzevii = experiment: Antifungal activity against Candida krusei
Nakaseomyces glabratus = experiment: Antifungal activity against Candida glabrata; assay type: functional
Candida tropicalis = experiment: Antifungal activity against Candida tropicalis; assay type: functional

SMILES: Cc1c(-c2cc(-c3ccc(-c4cc(-c5cnn(-c6ccccc6)c5C)n5nnnc5n4)cc3)nc3nnnn23)cnn1-c1ccccc1
zone of inhibition at 5000 µg/mL (Bacillus subtilis [1]): 8.1 to 9.9 mm | zone of inhibition at 5000 µg/mL (Escherichia coli [2]): 8.1 to 9.9 mm | zone of inhibition at 5000 µg/mL (Staphylococcus aureus [3]): 8.1 to 9.9 mm | zone of inhibition at 5000 µg/mL (Pseudomonas aeruginosa [4]): 8.1 to 9.9 mm

SMILES: O=c1c(OCc2nnn[nH]2)c(-c2ccc(F)cc2)oc2ccccc12
MIC (Staphylococcus aureus [5]): 100 µg/mL (≈ 296 µM) | Ratio (Bacillus subtilis [12]): 2 - 4 | Ratio (Escherichia coli [13]): 2 - 4 | MIC (Escherichia coli [6]): 100 µg/mL (≈ 296 µM) | MIC (Pseudomonas aeruginosa [8]): 100 µg/mL (≈ 296 µM) | Ratio (Pseudomonas aeruginosa [14]): 2 - 4 | MIC (Bacillus subtilis [11]): 100 µg/mL (≈ 296 µM)

SMILES: c1ccc2c(c1)sc1nnnn12
zone of inhibition at 600 µg/mL (Escherichia coli [17]): 15 to 20 mm

SMILES: C[C@H]1COc2c(N3CCN(C)CC3)c(F)cc3c(=O)c(C(=O)O)cn1c23.C[C@H]1COc2c(N3CCN(C)CC3)c(F)cc3c(=O)c(C(=O)O)cn1c23.O [LEVOFLOXACIN]
inhibition zone (IZ) (Bacillus cereus [20]): 28 - 30 mm | inhibition zone (IZ) (Escherichia coli [21]): 28 - 30 mm | inhibition zone (IZ) (Staphylococcus aureus [22]): 28 - 30 mm

SMILES: Cc1c(C(=O)c2ccccc2)sc(-n2cnnn2)c1C(=O)O
inhibition zone (IZ) (Bacillus cereus [20]): 17 - 24 mm | inhibition zone (IZ) (Escherichia coli [21]): 17 - 24 mm | inhibition zone (IZ) (Staphylococcus aureus [22]): 17 - 24 mm

SMILES: Fc1cc2[nH]c(SCc3ccc(-c4ccccc4-c4nnnn4C(c4ccccc4)(c4ccccc4)c4ccccc4)cc3)nc2cc1-n1cncn1
MIC (Staphylococcus aureus [5]): 16 to 64 µg/mL (≈ 22.5 to 89.9 µM) | MIC (Pichia kudriavzevii): 16 to 64 µg/mL (≈ 22.5 to 89.9 µM) | MIC (Candida albicans): 16 to 64 µg/mL (≈ 22.5 to 89.9 µM) | MIC (Nakaseomyces glabratus): 16 to 64 µg/mL (≈ 22.5 to 89.9 µM) | MIC (Escherichia coli [6]): 16 to 64 µg/mL (≈ 22.5 to 89.9 µM) | MIC (Pseudomonas aeruginosa [8]): 16 to 64 µg/mL (≈ 22.5 to 89.9 µM) | MIC (Candida tropicalis): 16 to 64 µg/mL (≈ 22.5 to 89.9 µM) | MIC (Bacillus subtilis [11]): 16 to 64 µg/mL (≈ 22.5 to 89.9 µM)

Now from value to compound, other results behind:

MIC (Proteus mirabilis): 3.12 to 25 µg/mL (≈ 7.49 to 59.9 µM) | MIC (Staphylococcus aureus [5]): 3.12 to 25 µg/mL (≈ 7.49 to 59.9 µM) | MIC (Candida albicans): 3.12 to 25 µg/mL (≈ 7.49 to 59.9 µM) | MIC (Escherichia coli [6]): 3.12 to 25 µg/mL (≈ 7.49 to 59.9 µM) | MIC [7]: 3.12 to 25 µg/mL (≈ 7.49 to 59.9 µM) | MIC (Pseudomonas aeruginosa [8]): 3.12 to 25 µg/mL (≈ 7.49 to 59.9 µM) | MIC (Aspergillus niger): 3.12 to 25 µg/mL (≈ 7.49 to 59.9 µM)
SMILES: COc1ccc(C2=NN(C(N)=S)C(c3cc4cc(C)ccc4n4nnnc34)C2)cc1 (stereo not given)

MIC (Bacillus cereus [9]): 30 to 40 µg/mL (≈ 87.9 to 117 µM) | MIC (Escherichia coli [6]): 30 to 40 µg/mL (≈ 87.9 to 117 µM) | MIC (Aspergillus flavus): 30 to 40 µg/mL (≈ 87.9 to 117 µM) | MIC [10]: 30 to 40 µg/mL (≈ 87.9 to 117 µM) | MIC (Trichothecium roseum): 30 to 40 µg/mL (≈ 87.9 to 117 µM) | MIC (Pseudomonas aeruginosa [8]): 30 to 40 µg/mL (≈ 87.9 to 117 µM) | MIC (Bacillus subtilis [11]): 30 to 40 µg/mL (≈ 87.9 to 117 µM)
SMILES: N=C(N)Nc1nnn(Cc2ccccc2Cn2nnc(C(=N)N)n2)n1

IC50 (C6): 8.3 µg/mL (≈ 17.1 µM)
SMILES: O=C(CSc1nnnn1-c1ccccc1)N/N=c1\scc(-c2ccccc2)n1-c1ccccc1
IC50 (NIH3T3): 417 µg/mL (≈ 858 µM)

t1/2 [15]: 3.46 h | AUC [16]: 5500 ng·h/mL
SMILES: C[C@@H](O)[C@H]1C(=O)N2C(C(=O)O)=C(SCCN=CN)C[C@H]12 [IMIPENEM ANHYDROUS]

MIC (Escherichia coli [6]): 7.7 µg/mL (≈ 16.4 µM) | MIC (Bacillus subtilis [11]): 8.33 µg/mL (≈ 17.7 µM)
SMILES: COc1ccc(/C=C2\SC(=O)N(Cc3ccc(-c4ccccc4-c4nnn[nH]4)cc3)C2=O)cc1
Ratio (Escherichia coli [18]): >2.91 | Ratio (Bacillus subtilis [19]): >2.91

clearance [23]: 51.2 mL/min/kg | t1/2 [15]: 3.99 h
SMILES: C[C@@H](O)[C@H]1C(=O)N2C(C(=O)O)=C(S[C@@H]3CN[C@H](C(=O)N(C)C)C3)[C@H](C)[C@H]12 [MEROPENEM]
